Patent US8242274B2, “Triazolopyridine kinase inhibitors useful for the treatment of degenerative and inflammatory diseases” (Galapagos NV, priority 2008, dated 2012)
pIC50: −log10 of the molar value. Blank lines part the entries; values can stand above or below the compound they belong to.

Assays:
[1] = biological target: T1, Recombinant human JAK3 catalytic domain (Homo sapiens, UniProt P52333); test: JAK3 inhibition assay; type: biochemical; settings: semi-quantitative score
T1 construct: Recombinant human JAK3 catalytic domain (amino acids 781-1124; catalog number PV3855); purchased Invitrogen PV3855
Description: Recombinant human JAK3 catalytic domain (amino acids 781-1124; catalog number PV3855) was purchased from Invitrogen. 0.025 mU of JAK3 was incubated with 2.5 μg polyGT substrate (Sigma catalog number P0275) in kinase reaction buffer (25 mM Tris pH 7.5, 0.5 mM EGTA, 0.5 mM Na3VO4, 5 mM b-glycerolphosphate, 0.01% Triton X-100, 1 μM non-radioactive ATP, 0.25 μCi 33P-gamma-ATP (GE Healthcare, catalog number AH9968) final concentrations) with or without 5 μL containing test compound or vehicle (DMSO, 1% final concentration), in a total volume of 25 μL, in a polypropylene 96-well plate (Greiner, V-bottom). After 105 min at 30° C., reactions were stopped by adding of 25 μL/well of 150 mM phosphoric acid. All of the terminated kinase reaction was transferred to prewashed (75 mM phosphoric acid) 96 well filter plates (Perkin Elmer catalog number 6005177) using a cell harvester (Perkin Elmer). Plates were washed 6 times with 300 μL per well of a 75 mM phosphoric acid solution and the bottom of the plates was sealed. 40 μL/well of Microscint-20 was added, the top of the plates was sealed and readout was performed using the Topcount (Perkin Elmer). Kinase activity was calculated by subtracting counts per minute (cpm) obtained in the presence of a positive control inhibitor (10 μM staurosporine) from cpm obtained in the presence of vehicle. The ability of a test compound to inhibit this activity was determined as: Percentage inhibition=((cpm determined for sample with test compound present−cpm determined for sample with positive control inhibitor) divided by (cpm determined in the presence of vehicle−cpm determined for sample with positive control inhibitor))*100%.
Dose dilution series were prepared for the compounds enabling the testing of dose-response effects in the JAK3 assay and the calculation of the IC50 for each compound. Each compound was routinely tested at concentration of 20 μM followed by a 1/3 serial dilution, 8 points (20 μM-6.67 μM-2.22 μM-740 nM-247 nM-82 nM-27 nM-9 nM) in a final concentration of 1% DMSO.

[2] = test system: Collagen Induced Arthritis (CIA); test: rat CIA model; type: in vivo
Description: Completed Freund's adjuvant (CFA) and incomplete Freund's adjuvant (IFA) were purchased from Difco. Bovine collagen type II (CII), lipopolysaccharide (LPS), and Enbrel were obtained from Chondrex (Isle d'Abeau, France); Sigma (P4252, L'Isle d'Abeau, France), Whyett (25 mg injectable syringe, France) Acros Organics (Palo Alto, Calif.), respectively. All other reagents used were of reagent grade and all solvents were of analytical grade.
Dark Agouti rats (male, 7-8 weeks old) were obtained from Harlan Laboratories (Maison-Alfort, France). Rats were kept on a 12 hours light/dark cycle (0700-1900). The temperature was maintained at 22° C., and food and water were provided ad libitum.
One day before the experiment, CII solution (2 mg/mL) was prepared with 0.05 M acetic acid and stored at 4° C. Just before the immunization, equal volumes of adjuvant (IFA) and CII were mixed by a homogenizer in a pre-cooled glass bottle in an ice water bath. Extra adjuvant and prolonged homogenization might be required if an emulsion is not formed. 0.2 mL of the emulsion was injected intradermally at the base of the tail of each rat on day 1, a second booster intradermal injection (CII solution at 2 mg/mL in CFA 0.1 mL saline) was performed on day 9. This immunization method was modified from published methods (Sims et al, 2004; Jou et al., 2005).
The therapeutic effects of the test compounds were tested in the rat CIA model. Rats were randomly divided into equal groups and each group contained 10 rats. All rats were immunized on day 1 and boosted on day 9. Therapeutic dosing lasted from day 16 to day 30. The negative control group was treated with vehicle (MC 0.5%) and the positive control group with Enbrel (10 mg/kg, 3× week, s.c.). A compound of interest was typically tested at 3 doses, e.g. 3, 10, 30 mg/kg, p.o.
Arthritis was scored according to the method of Khachigian 2006, Lin et al 2007 and Nishida et al. 2004). The swelling of each of the four paws was ranked with the arthritic score as follows: 0—no symptoms; 1—mild, but definite redness and swelling of one type of joint such as the ankle or wrist, or apparent redness and swelling limited to individual digits, regardless of the number of affected digits; 2—moderate redness and swelling of two or more types of joints; 3—severe redness and swelling of the entire paw including digits; 4—maximally inflamed limb with involvement of multiple joints (maximum cumulative clinical arthritis score 16 per animal) (Nishida et al., 2004).
The change in body weight (%) after onset of arthritis was calculated as follows: […]
X-ray photos were taken of the hind paws of each individual animal. […]

[3] = test system: MAB model; test: MAB model (collagen antibody-induced arthritis); type: in vivo, mice; settings: for activity in the MAB model: 30 mg/kg
Description: The MAB model allows a rapid assessment of the modulation of an RA-like inflammatory response by therapeutics ([…]. Nature Protocols (2006) 2512-2516: Collagen antibody-induced arthritis). DBA/J mice were injected i.v. with a cocktail of mAbs directed against collagen II. One day later, compound treatment was initiated (vehicle: 10% (v/v) HPβCD). Three days later, mice received an i.p. LPS injection (50 μg/mouse), resulting in a fast onset of inflammation. Compound treatment was continued until 10 days after the mAb injection. Inflammation was read by measuring paw swelling and recording the clinical score of each paw. The cumulative clinical arthritis score of four limbs was presented to show the severity of inflammation. A scoring system is applied to each limb using a scale of 0-4, with 4 being the most severe inflammation. • 0 Symptom free • 1 Mild, but definite redness and swelling of one type of joint such as the ankle or wrist, or apparent redness and swelling limited to individual digits, regardless of the number of affected digits • 2 Moderate redness and swelling of two or more types of joints • 3 Severe redness and swelling of the entire paw including digits • 4 Maximally inflamed limb with involvement of multiple joints

T1 sequence (P52333 781-1124): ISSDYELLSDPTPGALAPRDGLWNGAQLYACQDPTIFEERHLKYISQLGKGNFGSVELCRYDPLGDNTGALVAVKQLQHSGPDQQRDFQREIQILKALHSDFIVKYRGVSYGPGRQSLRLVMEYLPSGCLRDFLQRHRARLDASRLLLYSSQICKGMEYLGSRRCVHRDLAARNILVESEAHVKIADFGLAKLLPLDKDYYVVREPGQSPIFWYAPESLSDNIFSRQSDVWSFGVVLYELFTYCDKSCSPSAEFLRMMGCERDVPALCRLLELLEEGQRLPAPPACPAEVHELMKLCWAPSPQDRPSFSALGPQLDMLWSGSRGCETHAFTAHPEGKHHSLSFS

pIC50 [1]: < 6.30
SMILES: O=C(Nc1nc2cccc(-c3ccc(OCc4ccccc4)nc3)n2n1)C1CC1 [Compound 57, Cyclopropanecarboxylic acid [5-(6-benzyloxy-pyridin-3-yl)-[1,2,4]triazolo[1,5-a]pyridin-2-yl]-amide]

pIC50 [1]: 7.00 to 9.00
SMILES: O=C(Nc1nc2cccc(-c3ccc(OCc4ccccc4)cc3)n2n1)C1CC1 [Compound 12, N-(5-(4-(benzyloxy)phenyl)-[1,2,4]triazolo[1,5-a]pyridin-2-yl)cyclopropanecarboxamide]

pIC50 [1]: < 6.30
SMILES: O=C(Nc1nc2cccc(-c3ccc(NCc4ccccc4)cc3)n2n1)C1CC1 [Compound 72, N-(5-(4-(benzylamino)phenyl)-[1,2,4]triazolo[1,5-a]pyridin-2-yl)cyclopropanecarboxamide]

SMILES: O=C(Nc1nc2cccc(-c3ccc(OCc4ccccn4)cc3)n2n1)C1CC1 [Compound 37, N-(5-(4-(pyridin-2-ylmethoxy)phenyl)-[1,2,4]triazolo[1,5-a]pyridin-2-yl)cyclopropanecarboxamide]
activity in the rat CIA study ([2]; 10 mg/kg): active
activity in the MAB model [3]: active

pIC50 [1]: 6.30 to 7.00
SMILES: O=C(Nc1nc2cccc(-c3ccc(OCc4cccnc4)cc3)n2n1)C1CC1 [Compound 36, N-(5-(4-(pyridin-3-ylmethoxy)phenyl)-[1,2,4]triazolo[1,5-a]pyridin-2-yl)cyclopropanecarboxamide]
activity in the rat CIA study ([2]; 30 mg/kg): active
activity in the MAB model [3]: active

SMILES: N#Cc1ccc(COc2ccc(-c3cccc4nc(NC(=O)C5CC5)nn34)cc2)cn1 [Compound 176, N-(5-(4-((6-cyanopyridin-3-yl)methoxy)phenyl)-[1,2,4]triazolo[1,5-a]pyridin-2-yl)cyclopropanecarboxamide]
pIC50 [1]: 7.00 to 9.00
clinical score, rat CIA study ([2]; 3 mg/kg): Statistical significance
paw swelling, rat CIA study ([2]; 3 mg/kg): Statistical significance
efficacy in the rat CIA study, all readouts ([2]; rat, p.o., day 16 to day 30): efficacious in all readouts
clinical score, MAB model ([3]; 10 mg/kg p.o.): reduced the clinical score
inflammation, MAB model ([3]; 10 mg/kg p.o.): significantly reduced inflammation
clinical score, MAB model ([3]; 30 mg/kg p.o.): reduced the clinical score with statistical significance
inflammation, MAB model ([3]; 30 mg/kg p.o.): significantly reduced inflammation
